Measurements taken from US20190083477A1, “Cyclooxygenase Inhibitor and Calcium Channel Antagonist Compositions and Methods for Use in Urological Procedures” (Omeros Corporation, priority 2005, published 2019).
Each block holds one molecule with its values, some of them ahead of it. Ends that are not written are not given here.

Tests used:
[1] = system: rat bladder smooth muscle strips; assay: tissue or blood; conditions: read-out: BK-induced Contraction IC50
[2] = system: bradykinin-induced PGE2 in rat bladder tissue strips; assay: PGE2 release from urinary bladder strips, enzyme immunoassay (Example I); assay type: cell-based; conditions: 10 min, 10 minutes of bradykinin challenge, read-out: BK-induced PGE2 IC50
[3] = system: bradykinin-stimulated PGE2 release from rat bladder tissue strips; assay: tissue or blood; conditions: read-out: inhibition of bradykinin-evoked PGE2 release
COX = conditions: read-out: IC50 in a non-selective COX assay; cited from earlier work
rat bladder = assay: Acetic-acid overactive bladder model, intravesical delivery, cystometry (Example V); assay type: in vivo
Method: In this model, acute inflammation of the bladder is produced by using 0.2% acetic acid in saline as the bladder perfusion fluid and cystometry under anesthesia is performed after a recovery period from the surgical procedure.
The animals were anesthesized and bladder catheters were surgically implanted to allow irrigation of the test agents. The following cystometry parameters were monitored: intercontraction interval (ICI), trigger pressure (TP), micturition pressure (MP) and micturition volume (MV) using a Med Associates Cystometry Station and software program. […] Following the saline period, the rat bladder was infused with test agent in saline containing 0.2% acetic acid for 20 min followed by the collection of 7 representative ICI intervals for analysis.
Five to seven animals were normally tested in each group. Acidified saline served as the control. All infusion solutions were prepared fresh on the day of the experiment before use.

[4] = system: rat bladder tissue strips; assay: tissue or blood; conditions: read-out: inhibition of contractile response to bradykinin
[5] = system: rat bladder smooth muscle strips
L-type channel = conditions: cited from earlier work
Sequence of L-type channel (Q13936 whole entry, the tested form may be a part): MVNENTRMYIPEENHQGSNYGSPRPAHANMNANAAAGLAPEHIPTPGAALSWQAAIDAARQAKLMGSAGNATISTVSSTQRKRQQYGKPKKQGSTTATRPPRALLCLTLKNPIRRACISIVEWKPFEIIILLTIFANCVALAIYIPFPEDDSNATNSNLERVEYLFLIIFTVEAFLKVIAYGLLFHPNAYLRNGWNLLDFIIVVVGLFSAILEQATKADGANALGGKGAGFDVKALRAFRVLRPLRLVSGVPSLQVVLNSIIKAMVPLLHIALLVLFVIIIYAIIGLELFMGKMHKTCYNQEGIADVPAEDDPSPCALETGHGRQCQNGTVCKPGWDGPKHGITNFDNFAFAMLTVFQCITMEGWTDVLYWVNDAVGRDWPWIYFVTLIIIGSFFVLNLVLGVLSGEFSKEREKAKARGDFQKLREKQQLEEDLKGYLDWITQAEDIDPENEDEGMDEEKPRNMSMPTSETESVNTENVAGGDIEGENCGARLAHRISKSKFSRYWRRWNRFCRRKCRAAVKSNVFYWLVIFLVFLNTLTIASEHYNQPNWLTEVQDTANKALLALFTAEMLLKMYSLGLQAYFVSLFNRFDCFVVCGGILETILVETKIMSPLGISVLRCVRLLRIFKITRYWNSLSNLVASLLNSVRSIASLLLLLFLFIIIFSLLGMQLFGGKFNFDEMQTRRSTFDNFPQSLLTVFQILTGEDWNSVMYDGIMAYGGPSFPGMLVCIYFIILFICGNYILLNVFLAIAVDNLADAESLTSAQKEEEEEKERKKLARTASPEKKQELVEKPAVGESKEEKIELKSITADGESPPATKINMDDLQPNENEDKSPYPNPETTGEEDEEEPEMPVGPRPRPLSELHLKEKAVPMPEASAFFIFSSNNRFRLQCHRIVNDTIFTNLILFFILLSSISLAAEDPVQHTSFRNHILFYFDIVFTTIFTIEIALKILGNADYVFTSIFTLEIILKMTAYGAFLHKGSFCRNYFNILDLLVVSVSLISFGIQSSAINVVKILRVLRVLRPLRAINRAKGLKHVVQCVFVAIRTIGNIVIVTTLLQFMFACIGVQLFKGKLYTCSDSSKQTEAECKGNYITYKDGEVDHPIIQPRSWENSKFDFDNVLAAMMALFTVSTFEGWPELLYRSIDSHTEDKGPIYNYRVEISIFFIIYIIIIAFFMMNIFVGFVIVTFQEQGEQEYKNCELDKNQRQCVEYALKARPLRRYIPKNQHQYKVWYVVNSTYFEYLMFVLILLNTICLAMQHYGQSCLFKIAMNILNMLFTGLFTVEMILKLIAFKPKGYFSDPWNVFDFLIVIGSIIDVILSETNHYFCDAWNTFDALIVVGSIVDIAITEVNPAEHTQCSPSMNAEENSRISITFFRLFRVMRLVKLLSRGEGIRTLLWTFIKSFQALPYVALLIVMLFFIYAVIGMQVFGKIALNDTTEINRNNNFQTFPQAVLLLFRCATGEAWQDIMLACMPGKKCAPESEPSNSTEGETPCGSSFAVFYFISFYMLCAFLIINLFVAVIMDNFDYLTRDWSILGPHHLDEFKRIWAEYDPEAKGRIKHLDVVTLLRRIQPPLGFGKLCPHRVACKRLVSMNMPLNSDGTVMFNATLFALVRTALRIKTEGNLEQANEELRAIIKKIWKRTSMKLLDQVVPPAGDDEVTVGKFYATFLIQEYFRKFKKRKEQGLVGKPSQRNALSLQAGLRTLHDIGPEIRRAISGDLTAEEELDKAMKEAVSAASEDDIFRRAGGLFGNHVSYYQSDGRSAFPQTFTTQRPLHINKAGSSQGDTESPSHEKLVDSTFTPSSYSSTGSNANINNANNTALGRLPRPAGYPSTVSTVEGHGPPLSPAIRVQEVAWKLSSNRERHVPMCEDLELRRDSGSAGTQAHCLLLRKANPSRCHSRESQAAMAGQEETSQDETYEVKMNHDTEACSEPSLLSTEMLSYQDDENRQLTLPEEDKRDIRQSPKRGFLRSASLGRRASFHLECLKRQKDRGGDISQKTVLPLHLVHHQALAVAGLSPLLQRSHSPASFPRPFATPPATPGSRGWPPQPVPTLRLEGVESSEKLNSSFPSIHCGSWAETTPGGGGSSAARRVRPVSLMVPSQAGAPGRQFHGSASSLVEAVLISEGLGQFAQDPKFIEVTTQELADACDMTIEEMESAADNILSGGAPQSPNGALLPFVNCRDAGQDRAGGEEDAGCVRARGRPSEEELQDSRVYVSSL

rat urinary bladder = assay: In vivo rat cystometry model, 0.2% acetic acid infusion (Example I); conditions: 10 mg/kg intravenous
Method: The rats were anesthetized with urethane at 1.2 g/kg i.p. in 5 ml/kg. A polyethylene catheter (PE50) was implanted into the bladder for saline or acetic acid infusion through a 3-way stopcock. A pressure transducer was connected for measurements of intravesical pressure. Warm (37° C.) saline was infused into the bladder at a constant rate of […] (1 ml/hour) until cystometry became stable (no less than 60 minutes). Thereafter, 0.2% acetic acid was infused into the urinary bladder. Aspirin (10 mg/kg i.v.) and vehicle were administered intravenously via a PE-10 catheter in the femoral vein at 5 minutes after infusion of acetic acid was started and at the end of first micturition cycle. Dunnett's test was applied for comparison between the time before and after test substance or vehicle treatment. To ascertain differences between the test substance and the vehicle control group, an unpaired Student's t test was used. Differences are considered significant at […].

[6] = in irrigation buffer, 0.2% acetic acid, female rats

IC50 [1]: > 25 µM
IC50 [2]: > 25 µM
Molecule: CS(=O)(=O)c1ccc(-c2cc(Br)sc2-c2ccc(F)cc2)cc1 [DUP-697, 5-bromo-2-(4-fluorophenyl)-3-(4-methylsulfonyl) thiophene]

IC50 [1]: 24.8 µM
IC50 [2]: 1.65 µM
Molecule: CC(C(=O)O)c1ccc(-c2ccccc2)c(F)c1 (stereo not shown) [Flurbiprofen]

Molecule: CC(C(=O)O)c1cccc(C(=O)c2ccccc2)c1 (stereo not drawn) [Ketoprofen, 3-benzoyl-α-methylbenzeneacetic acid]
inhibition at 10 µM [3]: 81%
IC50 (COX): 0.004 to 0.008 µM
concentration giving complete inhibition of the shortening of the ICI (rat bladder; [6]): approximately 3 μM
inhibition at 10 µM [4]: 67%

Molecule: COC(=O)C1=C(C)NC(C)=C(C(=O)OC)C1c1ccccc1[N+](=O)[O-] [Nifedipine, 1,4-dihydro-2,6-dimethyl-4-(2-nitrophenyl)-3,5-pyridinedicarboxylic acid dimethyl ester]
type of antagonism upon bradykinin-induced contractile responses ([5]; single agent, 10 min incubation): noncompetitive
concentration of maximal effects on the shortening of the ICI (rat bladder; [6]): 1 µM
ICI plateau at higher concentrations (rat bladder; nifedipine above 1 μM in irrigation buffer): approximately 75 % of baseline
onset of action (L-type channel): less than 10 minutes

Molecule: RPPGFSPFR [bradykinin]
EC50 ([5]; read-out: EC50, cumulative concentration-response curve (contraction), agonist on bladder strips of normal animals): 0.0085 µM

IC50 [1]: > 25 µM
IC50 [2]: > 25 µM
Molecule: CS(=O)(=O)c1ccc(-n2nc(C(F)(F)F)cc2-c2ccc(F)cc2)cc1 [SC-58125, 1-[(4-methysufonyl)phenyl]-3-tri-fluoromethyl-5-(4-fluorophenyl)pyrazole]

Molecule: CC(=O)Oc1ccccc1C(=O)O [aspirin]
Threshold pressure (rat urinary bladder): not affected
bladder capacity (rat urinary bladder): parallel changes
inhibition of the acetic acid induced reduction in the intercontraction interval (ICI) (rat urinary bladder): gradual time-dependent inhibition
micturition pressure (rat urinary bladder): not affected
